Results as given in patent US10434181B2, “Oligomer-containing benzamide-based compounds” (Nektar Therapeutics, priority 2012, dated 2019).

Key:
[1] = test system: Sprague-Dawley rat hepatocytes; assay: MetID determination in rat hepatocytes; assay type: in vitro ADME
Procedure: (§1) Cryopreserved human and Sprague-Dawley rat hepatocytes were thawed in a 37° C. water bath. […] Samples were obtained from separate plates for each time point during the incubation. At each sampling time, the plates were removed from the incubator, quenched by adding 100 μL cold acetonitrile, and placed in an ice bath until centrifugation at 4,000 rpm for 30 minutes at 4° C. Supernatants were stored at or below −70° C. until LC-MS/MS analysis could be conducted. The liquid chromatography system used was Agilent 1100 Autosampler, Binary Pump, DAD and Column Enclosure. Tandem mass spectrometry was conducted using a Thermo DECA XP MAX Ion Trap Mass Spectrometer. The ion source was Electrospray (+) and the LC column used was a Varian, Polaris 5 C18-A (250×2.1 mm, 5 micron) column.
(§2) Metabolic pathways of metoclopramide and conjugates were determined in rat and human hepatocytes. N-dealkylation was the major metabolic pathway for metoclopramide in rats, and metabolism in human hepatocytes was minimal. […] FIG. 2 and FIG. 3 show the metabolic pathway of for mPEG1-N-metoclopramide and mPEG4-N-metoclopramide, respectively. […] In this figure, different metabolites for each conjugate are denoted with the “M” and correspond to the designation provided in the figure for a given conjugate. For example, metabolite M1 for mPEG1-N-metoclopramide in Table 6 corresponds to M1 in FIG. 2, metabolite M2 for mPEG4-N-metoclopramide in Table 6 corresponds to M2 in FIG. 3 and metabolite M3 mPEG8-N-metoclopramide in Table 6 corresponds to M3 in FIG. 4.

human hepatocytes = assay: MetID determination in human hepatocytes; assay type: in vitro ADME
Procedure: as §1, §2

[2] = incubation of 10 μM mPEG8-N-metoclopramide, parent and its metabolites M (FIG. 4)
[3] = incubation of 10 μM mPEG4-N-metoclopramide, parent and its metabolites M (FIG. 3)

| Compound | % of Total Metabolism, Rat Hep 1 hr [1, 2] | % of Total Metabolism, Rat Hep 4 hr [1, 2] | % of Total Metabolism, Human Hep 1 hr (human hepatocytes; [2]) | % of Total Metabolism, Human Hep 4 hr (human hepatocytes; [2]) | % of Total Metabolism, Rat Hep 1 hr [1, 3] | % of Total Metabolism, Rat Hep 4 hr [1, 3] | % of Total Metabolism, Human Hep 4 hr (human hepatocytes; [3]) |
| --- | --- | --- | --- | --- | --- | --- | --- |
| CCN(CCNC(=O)c1cc(Cl)c(N)cc1OC)CCOCCOCCOCCOCCOCCOCCO [M16] | trace | trace | trace | trace |  |  |  |
| CCN(CCNC(=O)c1cc(Cl)c(N)cc1OC)CCOCCOCCOCCOCCOCCO [M15] | Trace | 1% | trace | trace |  |  |  |
| CCN(CCNC(=O)c1cc(Cl)c(N)cc1OC)CCOCCO [M11] | Trace | 3.5% |  |  |  |  |  |
| CCN(CCNC(=O)c1cc(Cl)c(N)cc1OC)CCOCCOCCOCCOCCO [M14] | Trace | 2% | trace | trace |  |  |  |
| CCN(CCNC(=O)c1cc(Cl)c(N)cc1OC)CCOCCOCCOCCOCCOCCOCCOCCO [M17] | trace | trace | trace | trace |  |  |  |
| CCN(CCNC(=O)c1cc(Cl)c(N)cc1OC)CCOCCOCCO [M8] | 1.3% | 2.5% | trace | trace | trace | 1.5% |  |
| CCN(CCO)CCNC(=O)c1cc(Cl)c(N)cc1OC [M10] |  | trace |  |  |  |  |  |
| CCN(CCO)CCNC(=O)c1cc(Cl)c(N)cc1OC [M6] | 1% | 2.2% |  |  | trace | trace |  |
| CCN(CCNC(=O)c1cc(Cl)c(N)cc1OC)CCOCCO [M7] | 1.2% | 2.2% | trace | trace | 1.7% | 1.2% |  |
| CCN(CCNC(=O)c1cc(Cl)c(N)cc1OC)CCOCCOCCO [M12] | Trace | 0.7% |  | trace |  |  |  |
| CCN(CCNC(=O)c1cc(Cl)c(N)cc1OC)CCOCCOCCOCCO [M13] | 3.0% | 12.6% |  | 2.7% |  |  |  |
| CCN(CCNC(=O)c1cc(Cl)c(N)cc1OC)CCOCCOCCOCCO [M9] | Trace | 1.6% | trace | trace | 8.8% | 24.8% | 1.9% |
